Experimental data published in patent EP4745135A1 (Gluetacs Therapeutics (Shanghai) Co., Ltd., priority 2023, dated 2025).

Columns and labels:
IKZF1 = target: T1, IKZF1 (Homo sapiens, UniProt Q13422+Q96SW2); assay: Western blot, degradation of substrate protein in hPBMCs; assay type: cell-based
T1 construct: effects of the compounds of the present disclosure on the expression of target proteins in cells; endogenous in cells; host or cells: human PBMCs (Milecell Biotechnologies)

WEE1 = target: T2, WEE1 (Homo sapiens, UniProt P30291+Q96SW2); assay: as above; assay type: cell-based
T2 construct: effects of the compounds of the present disclosure on the expression of target proteins in cells; endogenous in cells; host or cells: human PBMCs (Milecell Biotechnologies)
T2 sequence (P30291 whole entry): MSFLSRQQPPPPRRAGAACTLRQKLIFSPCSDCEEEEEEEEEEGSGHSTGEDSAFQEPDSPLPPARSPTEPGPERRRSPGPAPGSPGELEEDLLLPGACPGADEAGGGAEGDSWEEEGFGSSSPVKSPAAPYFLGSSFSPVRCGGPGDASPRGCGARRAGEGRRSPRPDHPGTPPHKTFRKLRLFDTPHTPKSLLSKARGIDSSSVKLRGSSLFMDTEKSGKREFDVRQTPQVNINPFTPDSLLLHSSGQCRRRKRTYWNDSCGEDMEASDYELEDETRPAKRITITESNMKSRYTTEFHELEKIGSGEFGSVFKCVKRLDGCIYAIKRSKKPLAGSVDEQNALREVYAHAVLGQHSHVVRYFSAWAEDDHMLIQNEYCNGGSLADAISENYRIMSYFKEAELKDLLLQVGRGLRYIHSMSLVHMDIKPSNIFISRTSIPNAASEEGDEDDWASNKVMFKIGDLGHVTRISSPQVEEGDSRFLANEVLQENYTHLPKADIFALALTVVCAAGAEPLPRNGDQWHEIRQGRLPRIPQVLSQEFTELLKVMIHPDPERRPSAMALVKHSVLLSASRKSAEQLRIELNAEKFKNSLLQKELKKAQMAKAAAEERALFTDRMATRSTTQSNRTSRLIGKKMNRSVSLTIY
T2 sequence (Q96SW2 whole entry): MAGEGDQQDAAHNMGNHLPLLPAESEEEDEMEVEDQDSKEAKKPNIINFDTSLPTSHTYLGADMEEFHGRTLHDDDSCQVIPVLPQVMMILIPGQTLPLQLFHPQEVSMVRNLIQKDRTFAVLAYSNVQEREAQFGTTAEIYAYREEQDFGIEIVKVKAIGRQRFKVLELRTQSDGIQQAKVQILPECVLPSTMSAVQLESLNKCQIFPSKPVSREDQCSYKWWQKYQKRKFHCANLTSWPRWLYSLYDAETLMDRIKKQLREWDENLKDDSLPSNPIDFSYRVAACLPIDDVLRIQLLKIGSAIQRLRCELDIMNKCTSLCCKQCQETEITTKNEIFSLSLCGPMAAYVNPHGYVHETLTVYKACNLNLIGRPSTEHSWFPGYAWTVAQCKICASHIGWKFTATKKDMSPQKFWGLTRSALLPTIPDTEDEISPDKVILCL
T2 sequence (Q16531 whole entry partner): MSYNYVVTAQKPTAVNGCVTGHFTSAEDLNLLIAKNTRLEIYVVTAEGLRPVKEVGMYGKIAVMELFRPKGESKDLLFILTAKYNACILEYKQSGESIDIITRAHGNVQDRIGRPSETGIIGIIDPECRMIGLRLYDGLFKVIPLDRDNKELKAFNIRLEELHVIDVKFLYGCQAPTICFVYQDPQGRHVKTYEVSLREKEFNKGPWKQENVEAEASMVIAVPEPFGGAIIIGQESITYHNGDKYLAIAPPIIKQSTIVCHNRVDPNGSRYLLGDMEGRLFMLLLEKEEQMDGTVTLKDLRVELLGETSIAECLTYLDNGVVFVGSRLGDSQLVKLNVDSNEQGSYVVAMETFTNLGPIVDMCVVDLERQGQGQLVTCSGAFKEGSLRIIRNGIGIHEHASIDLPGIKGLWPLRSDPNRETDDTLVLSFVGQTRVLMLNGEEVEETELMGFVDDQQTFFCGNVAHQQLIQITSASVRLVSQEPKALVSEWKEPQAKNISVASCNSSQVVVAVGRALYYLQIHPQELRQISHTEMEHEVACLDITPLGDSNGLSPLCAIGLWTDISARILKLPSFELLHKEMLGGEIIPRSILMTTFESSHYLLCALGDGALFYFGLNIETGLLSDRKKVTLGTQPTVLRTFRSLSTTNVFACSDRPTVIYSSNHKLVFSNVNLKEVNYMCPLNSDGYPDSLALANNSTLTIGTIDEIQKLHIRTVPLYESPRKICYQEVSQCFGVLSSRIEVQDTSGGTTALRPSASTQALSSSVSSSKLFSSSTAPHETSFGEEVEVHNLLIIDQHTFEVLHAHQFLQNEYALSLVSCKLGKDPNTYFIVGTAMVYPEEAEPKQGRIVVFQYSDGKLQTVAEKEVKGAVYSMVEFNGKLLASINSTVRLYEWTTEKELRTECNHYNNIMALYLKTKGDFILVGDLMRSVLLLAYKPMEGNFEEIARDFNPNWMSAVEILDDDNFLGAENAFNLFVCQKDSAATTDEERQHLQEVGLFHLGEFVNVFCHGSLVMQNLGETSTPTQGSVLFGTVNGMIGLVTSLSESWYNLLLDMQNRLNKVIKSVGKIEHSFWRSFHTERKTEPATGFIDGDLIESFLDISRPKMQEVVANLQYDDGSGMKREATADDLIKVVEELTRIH

IKZF2 = target: T3, IKZF2 (Homo sapiens, UniProt Q96SW2+Q9UKS7); assay: as above; assay type: cell-based
T3 construct: effects of the compounds of the present disclosure on the expression of target proteins in cells; endogenous in cells; host or cells: human PBMCs (Milecell Biotechnologies)
T3 sequence (Q9UKS7 whole entry): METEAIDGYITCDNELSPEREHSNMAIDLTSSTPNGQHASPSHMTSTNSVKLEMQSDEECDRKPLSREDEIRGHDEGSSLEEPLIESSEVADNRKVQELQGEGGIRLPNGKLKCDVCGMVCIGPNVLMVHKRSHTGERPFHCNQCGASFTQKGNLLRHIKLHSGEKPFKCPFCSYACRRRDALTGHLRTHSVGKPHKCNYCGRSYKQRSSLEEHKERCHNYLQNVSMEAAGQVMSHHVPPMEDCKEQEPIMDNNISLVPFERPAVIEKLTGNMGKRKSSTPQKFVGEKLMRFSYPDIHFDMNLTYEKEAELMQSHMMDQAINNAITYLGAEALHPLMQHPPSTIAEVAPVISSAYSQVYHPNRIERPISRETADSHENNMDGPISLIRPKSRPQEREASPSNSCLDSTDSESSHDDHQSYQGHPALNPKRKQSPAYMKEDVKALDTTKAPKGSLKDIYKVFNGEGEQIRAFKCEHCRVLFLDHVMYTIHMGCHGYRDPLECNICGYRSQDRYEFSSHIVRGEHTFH
T3 sequence (Q96SW2 whole entry): as the sequence (Q96SW2 whole entry) above
T3 sequence (Q16531 whole entry partner): as the sequence (Q16531 whole entry partner) above

CK1α = target: T4, CK1α (Homo sapiens, UniProt P48729+Q96SW2); assay: as above; assay type: cell-based
T4 construct: effects of the compounds of the present disclosure on the expression of target proteins in cells; endogenous in cells; host or cells: human PBMCs (Milecell Biotechnologies)
T4 sequence (P48729 whole entry): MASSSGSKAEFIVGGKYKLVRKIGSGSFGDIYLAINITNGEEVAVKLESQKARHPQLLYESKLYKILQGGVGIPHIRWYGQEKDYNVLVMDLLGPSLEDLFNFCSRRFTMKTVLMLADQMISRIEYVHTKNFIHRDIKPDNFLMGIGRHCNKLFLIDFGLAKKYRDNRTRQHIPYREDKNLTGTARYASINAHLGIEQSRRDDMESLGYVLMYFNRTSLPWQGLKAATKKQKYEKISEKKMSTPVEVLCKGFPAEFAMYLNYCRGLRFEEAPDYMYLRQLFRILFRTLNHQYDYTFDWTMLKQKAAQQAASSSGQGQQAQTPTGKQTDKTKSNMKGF
T4 sequence (Q96SW2 whole entry): as the sequence (Q96SW2 whole entry) above
T4 sequence (Q16531 whole entry partner): as the sequence (Q16531 whole entry partner) above

IKZF3 = target: T5, IKZF3 (Homo sapiens, UniProt Q96SW2+Q9UKT9); assay: as above; assay type: cell-based
T5 construct: effects of the compounds of the present disclosure on the expression of target proteins in cells; endogenous in cells; host or cells: human PBMCs (Milecell Biotechnologies)
T5 sequence (Q9UKT9 whole entry): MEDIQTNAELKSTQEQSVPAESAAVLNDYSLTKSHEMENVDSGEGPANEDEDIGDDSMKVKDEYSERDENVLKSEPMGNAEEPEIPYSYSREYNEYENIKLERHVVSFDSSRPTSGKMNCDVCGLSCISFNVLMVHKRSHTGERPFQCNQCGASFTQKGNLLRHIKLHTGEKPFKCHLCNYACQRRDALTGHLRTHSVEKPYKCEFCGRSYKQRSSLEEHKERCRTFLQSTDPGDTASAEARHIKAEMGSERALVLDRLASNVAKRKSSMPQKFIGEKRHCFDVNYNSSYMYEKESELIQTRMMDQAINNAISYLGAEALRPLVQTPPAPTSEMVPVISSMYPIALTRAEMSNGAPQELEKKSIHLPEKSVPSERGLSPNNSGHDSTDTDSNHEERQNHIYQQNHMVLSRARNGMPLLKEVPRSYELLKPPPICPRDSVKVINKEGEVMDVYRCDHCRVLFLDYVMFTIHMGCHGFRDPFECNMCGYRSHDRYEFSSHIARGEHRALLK
T5 sequence (Q96SW2 whole entry): as the sequence (Q96SW2 whole entry) above
T5 sequence (Q16531 whole entry partner): as the sequence (Q16531 whole entry partner) above

GSPT1 = assay: as above; assay type: cell-based, Human
[1] = target: T6, human Cereblon WT GST-tagged protein (Homo sapiens, UniProt Q96SW2); assay: CRBN-binding affinity, HTRF (CEREBLON BINDING kit); details: for inhibition at 0.5 µM: read-out: Inhibition Rate at 0.5 µM (%); for inhibition at 2 µM: read-out: Inhibition Rate at 2 µM (%)
T6 construct: purchased CISBIO 64BDCRBNPEH
T6 sequence (Q96SW2 whole entry): as the sequence (Q96SW2 whole entry) above

[2] = 24 hours treatment, compounds at 50 nM and 500 nM (concentration behind the class not stated)
[3] = Western blot, 24 hours of compound treatment, compounds tested at 50 nM and 500 nM (concentration for the table not stated)

T1 sequence (Q13422 whole entry): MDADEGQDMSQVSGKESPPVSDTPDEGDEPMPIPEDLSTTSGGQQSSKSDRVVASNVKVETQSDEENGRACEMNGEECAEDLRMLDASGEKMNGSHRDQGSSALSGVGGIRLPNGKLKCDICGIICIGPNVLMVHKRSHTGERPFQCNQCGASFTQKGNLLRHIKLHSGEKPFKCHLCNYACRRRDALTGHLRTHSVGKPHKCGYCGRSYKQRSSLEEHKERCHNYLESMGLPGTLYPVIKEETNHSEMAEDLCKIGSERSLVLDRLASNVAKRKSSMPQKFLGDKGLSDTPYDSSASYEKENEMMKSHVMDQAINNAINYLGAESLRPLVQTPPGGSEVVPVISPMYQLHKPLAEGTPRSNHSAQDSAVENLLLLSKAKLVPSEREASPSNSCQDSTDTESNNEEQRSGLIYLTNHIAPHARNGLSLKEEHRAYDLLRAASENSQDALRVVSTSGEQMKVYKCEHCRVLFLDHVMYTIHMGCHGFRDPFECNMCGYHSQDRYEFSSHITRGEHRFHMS
T1 sequence (Q96SW2 whole entry): as the sequence (Q96SW2 whole entry) above
T1 sequence (Q16531 whole entry partner): as the sequence (Q16531 whole entry partner) above

O=C1CCC(N2Cc3cc(CN4CCC(c5ccoc5)CC4)ccc3C2=S)C(=O)N1 (stereo not drawn) [GT-08326, 3-(5-((4-(furan-3-yl)piperidin-1-yl)methyl)-1-thioxoisoindolin-2-yl)piperidine-2,6-dione]
IKZF 1 substrate protein remaining % (IKZF1; [2]): B (80%< substrate protein remaining %≤ 100%) | Wee1 substrate protein remaining % (WEE1; [2]): B (80%< substrate protein remaining %≤ 100%) | IKZF2 substrate protein remaining % (IKZF2; [2]): A (0% ≤ substrate protein remaining % ≤ 80%) | CK1α substrate protein remaining % (CK1α; [2]): A (0% ≤ substrate protein remaining % ≤ 80%) | IKZF3 substrate protein remaining % (IKZF3; [2]): B (80%< substrate protein remaining %≤ 100%) | GSPT1 substrate protein remaining % (GSPT1; [2]): A (0% ≤ substrate protein remaining % ≤ 80%) | inhibition at 0.5 µM [1]: 40 to 53% | inhibition at 2 µM [1]: 80 to 100%

O=C1CCC(N2Cc3c(CN4CCC(c5cccc6cnccc56)CC4)cccc3C2=S)C(=O)N1 (stereo not drawn) [GT-08857, 3-(4-((4-(isoquinolin-5-yl)piperidin-1-yl)methyl)-1-thioxoisoindolin-2-yl)piperidine-2,6-dione]
IKZF 1 substrate protein remaining % (IKZF1; [2]): B (80%< substrate protein remaining %≤ 100%) | Wee1 substrate protein remaining % (WEE1; [2]): A (0% ≤ substrate protein remaining % ≤ 80%) | IKZF2 substrate protein remaining % (IKZF2; [2]): B (80%< substrate protein remaining %≤ 100%) | CK1α substrate protein remaining % (CK1α; [2]): B (80%< substrate protein remaining %≤ 100%) | IKZF3 substrate protein remaining % (IKZF3; [2]): A (0% ≤ substrate protein remaining % ≤ 80%) | GSPT1 substrate protein remaining % (GSPT1; [2]): B (80%< substrate protein remaining %≤ 100%) | inhibition at 0.5 µM [1]: 60 to 80% | inhibition at 2 µM [1]: 80 to 100%

Cc1nc(N2CCN(Cc3ccc4c(c3)CN(C3CCC(=O)NC3=O)C4=S)CC2)c2c3c(sc2n1)CCCC3 (stereo not drawn) [GT-09299, 3-(5-((4-(2-methyl-5,6,7,8-tetrahydrobenzo[4,5]thieno[2,3-d]pyrimidin-4-yl)piperazin-1-yl)methyl)-1-thioxoisoindolin-2-yl)piperidine-2,6-dione]
IKZF 1 substrate protein remaining % (IKZF1; [2]): B (80%< substrate protein remaining %≤ 100%) | Wee1 substrate protein remaining % (WEE1; [2]): B (80%< substrate protein remaining %≤ 100%) | IKZF2 substrate protein remaining % (IKZF2; [2]): A (0% ≤ substrate protein remaining % ≤ 80%) | CK1α substrate protein remaining % (CK1α; [2]): B (80%< substrate protein remaining %≤ 100%) | IKZF3 substrate protein remaining % (IKZF3; [2]): A (0% ≤ substrate protein remaining % ≤ 80%) | GSPT1 substrate protein remaining % (GSPT1; [2]): B (80%< substrate protein remaining %≤ 100%) | inhibition at 0.5 µM [1]: 53 to 60% | inhibition at 2 µM [1]: 80 to 100%

O=C1CCC(N2Cc3cc(CN4CCN(c5ncnc6sc7c(c56)CCC7)CC4)ccc3C2=S)C(=O)N1 (stereo not drawn) [GT-09301, 3-(5-((4-(6,7-dihydro-5H-cyclopenta[4,5]thieno[2,3-d]pyrimidin-4-yl)piperazin-1-yl)methyl)-1-thioxoisoindolin-2-yl)piperidine-2,6-dione]
IKZF 1 substrate protein remaining % (IKZF1; [2]): A (0% ≤ substrate protein remaining % ≤ 80%) | Wee1 substrate protein remaining % (WEE1; [2]): B (80%< substrate protein remaining %≤ 100%) | IKZF2 substrate protein remaining % (IKZF2; [2]): A (0% ≤ substrate protein remaining % ≤ 80%) | CK1α substrate protein remaining % (CK1α; [2]): B (80%< substrate protein remaining %≤ 100%) | IKZF3 substrate protein remaining % (IKZF3; [2]): A (0% ≤ substrate protein remaining % ≤ 80%) | GSPT1 substrate protein remaining % (GSPT1; [2]): B (80%< substrate protein remaining %≤ 100%) | inhibition at 0.5 µM [1]: 60 to 80% | inhibition at 2 µM [1]: 80 to 100%

O=C1CCC(N2Cc3cc(CN4CCN(c5ccc(F)cn5)CC4)ccc3C2=S)C(=O)N1 (stereo not drawn) [GT-09222, 3-(5-((4-(5-fluoropyridin-2-yl)piperazin-1-yl)methyl)-1-thioxoisoindolin-2-yl)piperidine-2,6-dione]
IKZF 1 substrate protein remaining % (IKZF1; [3]): A (0% ≤ substrate protein remaining % ≤ 80%) | Wee1 substrate protein remaining % (WEE1; [3]): A (0% ≤ substrate protein remaining % ≤ 80%) | IKZF2 substrate protein remaining % (IKZF2; [3]): B (80%< substrate protein remaining %≤ 100%) | CK1α substrate protein remaining % (CK1α; [3]): B (80%< substrate protein remaining %≤ 100%) | IKZF3 substrate protein remaining % (IKZF3; [3]): B (80%< substrate protein remaining %≤ 100%) | GSPT1 substrate protein remaining % (GSPT1; [3]): B (80%< substrate protein remaining %≤ 100%) | inhibition at 0.5 µM [1]: 60 to 80% | inhibition at 2 µM [1]: 80 to 100%

O=C1CCC(N2Cc3c(CN4CCC(N5CCCc6cc(F)ccc65)CC4)cccc3C2=S)C(=O)N1 (stereo not drawn) [GT-08851, 3-(4-((4-(6-fluoro-3,4-dihydroquinolin-1(2H)-yl)piperidin-1-yl)methyl)-1-thioxoisoindolin-2-yl)piperidine-2,6-dione]
IKZF 1 substrate protein remaining % (IKZF1; [3]): B (80%< substrate protein remaining %≤ 100%) | Wee1 substrate protein remaining % (WEE1; [3]): A (0% ≤ substrate protein remaining % ≤ 80%) | IKZF2 substrate protein remaining % (IKZF2; [3]): B (80%< substrate protein remaining %≤ 100%) | CK1α substrate protein remaining % (CK1α; [3]): B (80%< substrate protein remaining %≤ 100%) | IKZF3 substrate protein remaining % (IKZF3; [3]): B (80%< substrate protein remaining %≤ 100%) | GSPT1 substrate protein remaining % (GSPT1; [3]): A (0% ≤ substrate protein remaining % ≤ 80%) | inhibition at 0.5 µM [1]: 40 to 53% | inhibition at 2 µM [1]: 60 to 80%

O=C1CCC(N2Cc3cc(CN4CCN(c5ccc(C(F)(F)F)cn5)CC4)ccc3C2=S)C(=O)N1 (stereo not drawn) [GT-09225, 3-(1-thioxo-5-((4-(5-(trifluoromethyl)pyridin-2-yl)piperazin-1-yl)methyl)isoindolin-2-yl)piperidine-2,6-dione]
IKZF 1 substrate protein remaining % (IKZF1; [3]): B (80%< substrate protein remaining %≤ 100%) | Wee1 substrate protein remaining % (WEE1; [3]): B (80%< substrate protein remaining %≤ 100%) | IKZF2 substrate protein remaining % (IKZF2; [3]): B (80%< substrate protein remaining %≤ 100%) | CK1α substrate protein remaining % (CK1α; [3]): A (0% ≤ substrate protein remaining % ≤ 80%) | IKZF3 substrate protein remaining % (IKZF3; [3]): A (0% ≤ substrate protein remaining % ≤ 80%) | GSPT1 substrate protein remaining % (GSPT1; [3]): A (0% ≤ substrate protein remaining % ≤ 80%) | inhibition at 0.5 µM [1]: 60 to 80% | inhibition at 2 µM [1]: 80 to 100%

Cc1cccc(N2CCN(Cc3cccc4c3CN(C3CCC(=O)NC3=O)C4=S)CC2)c1 (stereo not drawn) [GT-08498, 3-(1-thioxo-4-((4-(m-tolyl)piperazin-1-yl)methyl)isoindolin-2-yl)piperidine-2,6-dione]
IKZF 1 substrate protein remaining % (IKZF1; [3]): B (80%< substrate protein remaining %≤ 100%) | Wee1 substrate protein remaining % (WEE1; [3]): A (0% ≤ substrate protein remaining % ≤ 80%) | IKZF2 substrate protein remaining % (IKZF2; [3]): A (0% ≤ substrate protein remaining % ≤ 80%) | CK1α substrate protein remaining % (CK1α; [3]): B (80%< substrate protein remaining %≤ 100%) | IKZF3 substrate protein remaining % (IKZF3; [3]): B (80%< substrate protein remaining %≤ 100%) | GSPT1 substrate protein remaining % (GSPT1; [3]): A (0% ≤ substrate protein remaining % ≤ 80%) | inhibition at 0.5 µM [1]: 40 to 53% | inhibition at 2 µM [1]: 60 to 80%

O=C1CCC(N2Cc3c(CN4CCC(c5ccnc6cc(F)ccc56)CC4)cccc3C2=S)C(=O)N1 (stereo not drawn) [GT-08858, 3-(4-((4-(7-fluoroquinolin-4-yl)piperidin-1-yl)methyl)-1-thioxoisoindolin-2-yl)piperidine-2,6-dione]
IKZF 1 substrate protein remaining % (IKZF1; [2]): B (80%< substrate protein remaining %≤ 100%) | Wee1 substrate protein remaining % (WEE1; [2]): A (0% ≤ substrate protein remaining % ≤ 80%) | IKZF2 substrate protein remaining % (IKZF2; [2]): B (80%< substrate protein remaining %≤ 100%) | CK1α substrate protein remaining % (CK1α; [2]): B (80%< substrate protein remaining %≤ 100%) | IKZF3 substrate protein remaining % (IKZF3; [2]): B (80%< substrate protein remaining %≤ 100%) | GSPT1 substrate protein remaining % (GSPT1; [2]): B (80%< substrate protein remaining %≤ 100%) | inhibition at 0.5 µM [1]: 60 to 80% | inhibition at 2 µM [1]: 80 to 100%

O=C1CCC(N2Cc3c(CN4CCN(c5ccncc5Cl)CC4)cccc3C2=S)C(=O)N1 (stereo not drawn) [GT-08731, 3-(4-((4-(3-chloropyridin-4-yl)piperazin-1-yl)methyl)-1-thioxoisoindolin-2-yl)piperidine-2,6-dione]
IKZF 1 substrate protein remaining % (IKZF1; [3]): B (80%< substrate protein remaining %≤ 100%) | Wee1 substrate protein remaining % (WEE1; [3]): A (0% ≤ substrate protein remaining % ≤ 80%) | IKZF2 substrate protein remaining % (IKZF2; [3]): B (80%< substrate protein remaining %≤ 100%) | CK1α substrate protein remaining % (CK1α; [3]): B (80%< substrate protein remaining %≤ 100%) | IKZF3 substrate protein remaining % (IKZF3; [3]): B (80%< substrate protein remaining %≤ 100%) | GSPT1 substrate protein remaining % (GSPT1; [3]): A (0% ≤ substrate protein remaining % ≤ 80%) | inhibition at 0.5 µM [1]: 60 to 80% | inhibition at 2 µM [1]: 80 to 100%

O=C1CCC(N2Cc3c(CN4CC5CCC(C4)N5c4cccc(Cl)c4Cl)cccc3C2=S)C(=O)N1 (stereo not drawn) [GT-08470, 3-(4-((8-(2,3-dichlorophenyl)-3,8-diazabicyclo[3.2.1]octan-3-yl)methyl)-1-thioxoisoindolin-2-yl)piperidine-2,6-dione]
IKZF 1 substrate protein remaining % (IKZF1; [3]): B (80%< substrate protein remaining %≤ 100%) | Wee1 substrate protein remaining % (WEE1; [3]): B (80%< substrate protein remaining %≤ 100%) | IKZF2 substrate protein remaining % (IKZF2; [3]): B (80%< substrate protein remaining %≤ 100%) | CK1α substrate protein remaining % (CK1α; [3]): B (80%< substrate protein remaining %≤ 100%) | IKZF3 substrate protein remaining % (IKZF3; [3]): B (80%< substrate protein remaining %≤ 100%) | GSPT1 substrate protein remaining % (GSPT1; [3]): A (0% ≤ substrate protein remaining % ≤ 80%) | inhibition at 0.5 µM [1]: 20 to 30% | inhibition at 2 µM [1]: 53 to 60%

O=C1CCC(N2Cc3c(CN4CCN(c5ccccc5)CC4)cccc3C2=S)C(=O)N1 (stereo not drawn) [GT-08259, 3-(4-((4-phenylpiperazin-1-yl)methyl)-1-thioxoisoindolin-2-yl)piperidine-2,6-dione]
IKZF 1 substrate protein remaining % (IKZF1; [3]): B (80%< substrate protein remaining %≤ 100%) | Wee1 substrate protein remaining % (WEE1; [3]): A (0% ≤ substrate protein remaining % ≤ 80%) | IKZF2 substrate protein remaining % (IKZF2; [3]): B (80%< substrate protein remaining %≤ 100%) | CK1α substrate protein remaining % (CK1α; [3]): B (80%< substrate protein remaining %≤ 100%) | IKZF3 substrate protein remaining % (IKZF3; [3]): B (80%< substrate protein remaining %≤ 100%) | GSPT1 substrate protein remaining % (GSPT1; [3]): A (0% ≤ substrate protein remaining % ≤ 80%) | inhibition at 0.5 µM [1]: 40 to 53% | inhibition at 2 µM [1]: 60 to 80%
